How the values were obtained:
[1] = target: GSK3β (H350L) (Homo sapiens (Human), UniProt P49841); conditions: read-out: GSK3β Ki
Method: The assay was initiated with the addition of ATP, following 15 minutes pre-incubation of enzyme and inhibitor at room temperature in the reaction mixture. The reaction was stopped after 30 minutes at room temperature by the addition of 50 μL of 80 mM EDTA.

[2] = target: CDK2/Cyclin E1 full length (Homo sapiens (Human), UniProt P24941); experiment: CDK2/Cyclin E1 full length mobility shift assay; assay type: biochemical

Sequence of GSK3β (H350L) (P49841 whole entry, stated change not applied): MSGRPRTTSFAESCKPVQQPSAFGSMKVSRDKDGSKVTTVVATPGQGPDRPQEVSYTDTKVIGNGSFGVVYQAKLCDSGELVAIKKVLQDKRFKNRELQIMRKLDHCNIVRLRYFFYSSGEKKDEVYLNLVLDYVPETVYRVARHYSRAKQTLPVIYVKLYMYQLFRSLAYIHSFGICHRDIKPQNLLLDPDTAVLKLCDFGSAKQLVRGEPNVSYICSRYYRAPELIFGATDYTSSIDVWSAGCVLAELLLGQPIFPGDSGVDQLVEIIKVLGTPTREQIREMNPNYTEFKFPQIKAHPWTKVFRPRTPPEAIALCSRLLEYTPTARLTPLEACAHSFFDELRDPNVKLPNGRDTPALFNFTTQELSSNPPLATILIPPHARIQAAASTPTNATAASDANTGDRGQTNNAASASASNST

Q: What does the source list for O=C(Cc1ccno1)Nc1cc([C@H]2CC[C@@H](OC(=O)NC3CCCC3)C2)[nH]n1 [Example 460, (1R,3S)-3-{3-[(1,2-oxazol-5-ylacetyl)amino]-1H-pyrazol-5-yl}cyclopentyl cyclopentylcarbamate]?
A: Ki [1]: 39.9 nM; Ki [2]: 1.62 nM

Q: CC(C)NC(=O)O[C@@H]1CC[C@H](c2cc(NC(=O)Cc3cc(F)cc(F)c3)n[nH]2)C1 [Example 279, (1R,3S)-3-(3-{[(3,5-difluorophenyl)acetyl]amino}-1H-pyrazol-5-yl)cyclopentyl propan-2-ylcarbamate] was tested. Which Ki [1] did it give?
A: 53.2 nM

Q: What about the Ki [2] of the same compound?
A: 0.32 nM

Q: Which Ki [1] does the source give for Cc1cc(CC(=O)Nc2cc([C@H]3CC[C@@H](OC(=O)N(C)C(C)C)C3)[nH]n2)on1 [Example 289, (1R,3S)-3-(3-{[(3-methyl-1,2-oxazol-5-yl)acetyl]amino}-1H-pyrazol-5-yl)cyclopentyl methyl(propan-2-yl)carbamate] here?
A: 10.6 nM

Q: And the Ki [2]?
A: 0.49 nM

Q: What does the source list for CC[C@H](C)NC(=O)O[C@@H]1CC[C@H](c2cc(NC(=O)Cc3cncc(OC)n3)n[nH]2)C1 [Example 348, (1R,3S)-3-(3-{[(6-methoxypyrazin-2-yl)acetyl]amino}-1H-pyrazol-5-yl)cyclopentyl (2S)-butan-2-ylcarbamate]?
A: Ki [1]: 54.1 nM; Ki [2]: 0.59 nM

Q: Which results are given for Cc1cnc(CC(=O)Nc2cc([C@H]3CC[C@@H](OC(=O)NCCC(F)(F)F)C3)[nH]n2)o1 [Example 218, (1R,3S)-3-(3-{[(5-methyl-1,3-oxazol-2-yl)acetyl]amino}-1H-pyrazol-5-yl)cyclopentyl (3,3,3-trifluoropropyl)carbamate]?
A: Ki [1]: 30.6 nM; Ki [2]: 2.09 nM

Q: For Cc1cnc(CC(=O)Nc2cc([C@H]3CC[C@@H](OC(=O)NC4(C)CC4)C3)[nH]n2)cn1 [Example 428, (1R,3S)-3-(3-{[(5-methylpyrazin-2-yl)acetyl]amino}-1H-pyrazol-5-yl)cyclopentyl (1-methylcyclopropyl)carbamate], which Ki [1] is on record?
A: 30.1 nM

Q: And the Ki [2]?
A: 0.4 nM

Q: Which Ki [1] does the source give for CCCNC(=O)O[C@@H]1CC[C@H](c2cc(NC(=O)Cc3cc(OC)ccc3S(C)(=O)=O)n[nH]2)C1 [Example 213, (1R,3S)-3-[3-({[5-methoxy-2-(methylsulfonyl)phenyl]acetyl}amino)-1H-pyrazol-5-yl]cyclopentyl propylcarbamate] here?
A: 183 nM

Q: What about the Ki [2] of the same compound?
A: 0.32 nM

Q: For Cn1cc(CC(=O)Nc2cc([C@H]3CC[C@@H](OC(=O)N4CCC4(C)C)C3)[nH]n2)cn1 [Example 148], which Ki [1] is on record?
A: 5.57 nM

Q: And the Ki [2]?
A: 0.24 nM

Q: For COc1cc(CC(=O)Nc2cc([C@H]3CC[C@@H](OC(=O)N[C@@H](C)[C@@H](C)F)C3)[nH]n2)ccn1 [Example 101], which Ki [1] is on record?
A: 20.9 nM

Q: And the Ki [2]?
A: 0.28 nM

Q: With COc1ccc(CC(=O)Nc2cc([C@H]3CC[C@@H](OC(=O)N4C[C@H](O)[C@H]4C)C3)[nH]n2)cn1 [Example 616, (1R,3S)-3-(3-{[(6-methoxypyridin-3-yl)acetyl]amino}-1H-pyrazol-5-yl)cyclopentyl (2R,3S)-3-hydroxy-2-methylazetidine-1-carboxylate] as the compound, how does the Ki [1] read?
A: 4.05 nM

Q: And the Ki [2]?
A: 0.28 nM

Q: Which Ki [1] does the source give for COc1cc(CC(=O)Nc2cc([C@H]3CC[C@@H](OC(=O)N4C[C@@H](OC)[C@@H]4C)C3)[nH]n2)ccn1 [Example 619, (1R,3S)-3-(3-{[(2-methoxypyridin-4-yl)acetyl]amino}-1H-pyrazol-5-yl)cyclopentyl (2S,3R)-3-methoxy-2-methylazetidine-1-carboxylate] here?
A: 5.75 nM

Q: What about the Ki [2] of the same compound?
A: 0.42 nM

Q: With COc1ccc(CC(=O)Nc2cc([C@H]3CC[C@@H](OC(=O)NC(C)C)C3)[nH]n2)cc1 [Example 275, (1R,3S)-3-(3-{[(4-methoxyphenyl)acetyl]amino}-1H-pyrazol-5-yl)cyclopentyl propan-2-ylcarbamate] as the compound, how does the Ki [1] read?
A: 53.1 nM

Q: What about the Ki [2] of the same compound?
A: 0.49 nM

Q: Which results are given for CCCNC(=O)O[C@@H]1CC[C@H](c2cc(NC(=O)c3ccnn3C)n[nH]2)C1 [Example 164, (1R,3S)-3-(3-{[(1-methyl-1H-pyrazol-5-yl)carbonyl]amino}-1H-pyrazol-5-yl)cyclopentyl propylcarbamate]?
A: Ki [1]: 44.7 nM; Ki [2]: 0.72 nM

Q: What does the source list for CCCNC(=O)O[C@@H]1CC[C@H](c2cc(NC(=O)Cc3cnc(C)o3)n[nH]2)C1 [Example 176, (1R,3S)-3-(3-{[(2-methyl-1,3-oxazol-5-yl)acetyl]amino}-1H-pyrazol-5-yl)cyclopentyl propylcarbamate]?
A: Ki [1]: 46.1 nM; Ki [2]: 2.5 nM

Q: What does the source list for CCCCNC(=O)O[C@@H]1CC[C@H](c2cc(NC(=O)Cc3ccno3)n[nH]2)C1 [Example 259, (1R,3S)-3-{3-[(1,2-oxazol-5-ylacetyl)amino]-1H-pyrazol-5-yl}cyclopentyl butylcarbamate]?
A: Ki [1]: 17.4 nM; Ki [2]: 0.68 nM

Q: What does the source list for COCCn1nccc1C(=O)Nc1cc([C@H]2CC[C@@H](OC(=O)NC(C)C)C2)[nH]n1 [Example 278, (1R,3S)-3-[3-({[1-(2-methoxyethyl)-1H-pyrazol-5-yl]carbonyl}amino)-1H-pyrazol-5-yl]cyclopentyl propan-2-ylcarbamate]?
A: Ki [1]: 56.7 nM; Ki [2]: 0.52 nM

Q: How did the Ki [1] turn out when CCCNC(=O)O[C@H]1CC[C@@H](c2cc(NC(=O)Cc3cnc(C)o3)n[nH]2)C1 [Example 175, (1S,3R)-3-(3-{[(2-methyl-1,3-oxazol-5-yl)acetyl]amino}-1H-pyrazol-5-yl)cyclopentyl propylcarbamate] was run?
A: 39.7 nM

Q: What about the Ki [2] of the same compound?
A: 0.82 nM

Q: With CCNC(=O)O[C@@H]1CC[C@H](c2cc(NC(=O)Cc3ccc4c(cnn4C)c3)n[nH]2)C1 [Example 3, (1R,3S)-3-(3-{[(1-methyl-1H-indazol-5-yl)acetyl]amino}-1H-pyrazol-5-yl)cyclopentyl ethylcarbamate] as the compound, how does the Ki [1] read?
A: 10 nM

Q: And the Ki [2]?
A: 0.34 nM

Q: With CCN(C)C(=O)O[C@@H]1CC[C@H](c2cc(NC(=O)Cc3cnc(C)s3)n[nH]2)C1 [Example 239, (1R,3S)-3-(3-{[(2-methyl-1,3-thiazol-5-yl)acetyl]amino}-1H-pyrazol-5-yl)cyclopentyl ethyl(methyl)carbamate] as the compound, how does the Ki [1] read?
A: 9.44 nM

Q: And the Ki [2]?
A: 1.15 nM

Q: Which results are given for Cc1cnc(CC(=O)Nc2cc([C@@H]3CC[C@H](OC(=O)NC(C)C)C3)[nH]n2)o1 [Example 270, (1S,3R)-3-(3-{[(5-methyl-1,3-oxazol-2-yl)acetyl]amino}-1H-pyrazol-5-yl)cyclopentyl propan-2-ylcarbamate]?
A: Ki [1]: 39.9 nM; Ki [2]: 0.86 nM

Q: Which results are given for CCCNC(=O)O[C@H]1CC[C@@H](c2cc(Nc3ccc4c(n3)CC[C@@H]4N(C)C)n[nH]2)C1 [Example 192, (1S,3R)-3-(3-{[(5S)-5-(dimethylamino)-6,7-dihydro-5H-cyclopenta[b]pyridin-2-yl]amino}-1H-pyrazol-5-yl)cyclopentyl propylcarbamate]?
A: Ki [1]: > 191 nM; Ki [2]: 0.7 nM

Q: Which results are given for COc1cc(CC(=O)Nc2cc([C@H]3CC[C@@H](OC(=O)NC(C)(C)C)C3)[nH]n2)c(OC)cn1 [Example 315, (1R,3S)-3-(3-{[(2,5-dimethoxypyridin-4-yl)acetyl]amino}-1H-pyrazol-5-yl)cyclopentyl tert-butylcarbamate]?
A: Ki [1]: 133 nM; Ki [2]: 0.65 nM

Q: What does the source list for COc1ccc(CC(=O)Nc2cc([C@@H]3CC[C@H](OC(=O)NC4CCOCC4)C3)[nH]n2)cc1 [Example 501, (1S,3R)-3-(3-{[(4-methoxyphenyl)acetyl]amino}-1H-pyrazol-5-yl)cyclopentyl tetrahydro-2H-pyran-4-ylcarbamate]?
A: Ki [1]: 12.5 nM; Ki [2]: 1.43 nM

Q: Cc1cc(CC(=O)Nc2cc([C@H]3CC[C@@H](OC(=O)N4[C@@H](C)C[C@@H]4C)C3)[nH]n2)on1 [Example 150] was tested. Which Ki [1] did it give?
A: 8.35 nM

Q: And the Ki [2]?
A: 0.25 nM

Q: For Cc1cc(CC(=O)Nc2cc([C@@H]3CC[C@H](OC(=O)N[C@H]4CC[C@@H](O)CC4)C3)[nH]n2)ccn1 [Example 544, (1S,3R)-3-(3-{[(2-methylpyridin-4-yl)acetyl]amino}-1H-pyrazol-5-yl)cyclopentyl (cis-4-hydroxycyclohexyl)carbamate], which Ki [1] is on record?
A: 1.96 nM

Q: What about the Ki [2] of the same compound?
A: 0.54 nM

Q: What does the source list for C[C@@H](CC(F)(F)F)NC(=O)O[C@@H]1CC[C@H](c2cc(NC(=O)Cc3cnn(C)c3)n[nH]2)C1 [Example 92]?
A: Ki [1]: 16.6 nM; Ki [2]: 0.1 nM

Q: COc1ccc(CC(=O)Nc2cc([C@@H]3CC[C@H](OC(=O)N[C@H]4CC[C@@](C)(O)CC4)C3)[nH]n2)cc1 [Example 564, (1S,3R)-3-(3-{[(4-methoxyphenyl)acetyl]amino}-1H-pyrazol-5-yl)cyclopentyl (cis-4-hydroxy-4-methylcyclohexyl)carbamate] was tested. Which Ki [1] did it give?
A: 10.1 nM

Q: And the Ki [2]?
A: 0.37 nM

Q: With COCc1cc(C(=O)Nc2cc([C@H]3CC[C@@H](OC(=O)N[C@H](C)C4CC4)C3)[nH]n2)n(C)n1 [Example 105] as the compound, how does the Ki [1] read?
A: > 47.6 nM

Q: And the Ki [2]?
A: 0.47 nM

Q: COc1cc(CC(=O)Nc2cc([C@H]3CC[C@@H](OC(=O)N4C[C@@](C)(O)[C@@H]4C)C3)[nH]n2)ccn1 [Example 625, (1R,3S)-3-(3-{[(2-methoxypyridin-4-yl)acetyl]amino}-1H-pyrazol-5-yl)cyclopentyl (2S,3R)-3-hydroxy-2,3-dimethylazetidine-1-carboxylate] was tested. Which Ki [1] did it give?
A: 4.97 nM

Q: What about the Ki [2] of the same compound?
A: 0.45 nM

Q: With CC[C@H](C)NC(=O)O[C@@H]1CC[C@H](c2cc(NC(=O)Cc3cc(C)ncc3S(C)(=O)=O)n[nH]2)C1 [Example 373, (1R,3S)-3-[3-({[2-methyl-5-(methylsulfonyl)pyridin-4-yl]acetyl}amino)-1H-pyrazol-5-yl]cyclopentyl (2S)-butan-2-ylcarbamate] as the compound, how does the Ki [1] read?
A: 74.3 nM

Q: And the Ki [2]?
A: 0.47 nM

Q: Which results are given for CCCNC(=O)O[C@H]1CC[C@@H](c2cc(NC(=O)Cc3cnc(C)s3)n[nH]2)C1 [Example 22]?
A: Ki [1]: > 191 nM; Ki [2]: 0.23 nM

Q: Cc1ncc(CC(=O)Nc2cc([C@H]3CC[C@@H](OC(=O)N4CCC[C@@H]4C)C3)[nH]n2)s1 [Example 139] was tested. Which Ki [1] did it give?
A: 8.48 nM

Q: And the Ki [2]?
A: 0.21 nM

Q: What does the source list for Cn1nncc1C(=O)Nc1cc([C@H]2CC[C@@H](OC(=O)NC(C)(C)C)C2)[nH]n1 [Example 293, (1R,3S)-3-(3-{[(1-methyl-1H-1,2,3-triazol-5-yl)carbonyl]amino}-1H-pyrazol-5-yl)cyclopentyl tert-butylcarbamate]?
A: Ki [1]: > 95.3 nM; Ki [2]: 0.85 nM

Q: Which results are given for CC1(C)CCCN1C(=O)O[C@@H]1CC[C@H](c2cc(NC(=O)Cc3cnc4ncnn4c3)n[nH]2)C1 [Example 137]?
A: Ki [1]: 6.07 nM; Ki [2]: 0.09 nM

Reference: patent publication US11014911B2, “CDK2 inhibitors” (Pfizer Inc., priority 2019, dated 2021)
